Literature values in patent US20240226070A1, “URAT1 INHIBITOR, PHARMACEUTICAL COMPOSITIONS AND USES THEREOF” (UR-1 Therapeutics, Inc., priority 2021, published 2024).

Tests used:
5/6 Nx rats = conditions: for effect on aggravation of CKD by hyperuricemia: 5/6 Nx rats dosed with potassium oxonate (750 mg/kg BW)
[1] = oral administration, 1.3 mg/kg
OAT1 = molecular target: T1, OAT1 (Homo sapiens, UniProt Q4U2R8); conditions: in vitro
T1 sequence (Q4U2R8 1-563): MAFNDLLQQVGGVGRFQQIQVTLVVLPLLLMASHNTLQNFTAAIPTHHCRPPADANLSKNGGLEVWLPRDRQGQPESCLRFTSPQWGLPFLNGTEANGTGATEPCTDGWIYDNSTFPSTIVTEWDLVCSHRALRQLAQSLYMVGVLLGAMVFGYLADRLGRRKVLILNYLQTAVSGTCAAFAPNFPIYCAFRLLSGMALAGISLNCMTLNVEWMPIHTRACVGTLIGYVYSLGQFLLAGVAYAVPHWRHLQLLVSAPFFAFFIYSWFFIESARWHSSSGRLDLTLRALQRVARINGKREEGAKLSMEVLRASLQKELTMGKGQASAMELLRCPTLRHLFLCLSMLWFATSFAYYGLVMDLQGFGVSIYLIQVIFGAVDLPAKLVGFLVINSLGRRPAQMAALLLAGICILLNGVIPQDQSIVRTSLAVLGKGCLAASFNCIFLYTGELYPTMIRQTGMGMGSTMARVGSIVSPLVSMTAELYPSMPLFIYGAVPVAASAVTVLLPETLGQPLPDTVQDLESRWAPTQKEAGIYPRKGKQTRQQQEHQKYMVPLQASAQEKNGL

OAT3 = molecular target: T2, OAT3 (Homo sapiens, UniProt Q8TCC7); conditions: in vitro
T2 sequence (Q8TCC7 1-542): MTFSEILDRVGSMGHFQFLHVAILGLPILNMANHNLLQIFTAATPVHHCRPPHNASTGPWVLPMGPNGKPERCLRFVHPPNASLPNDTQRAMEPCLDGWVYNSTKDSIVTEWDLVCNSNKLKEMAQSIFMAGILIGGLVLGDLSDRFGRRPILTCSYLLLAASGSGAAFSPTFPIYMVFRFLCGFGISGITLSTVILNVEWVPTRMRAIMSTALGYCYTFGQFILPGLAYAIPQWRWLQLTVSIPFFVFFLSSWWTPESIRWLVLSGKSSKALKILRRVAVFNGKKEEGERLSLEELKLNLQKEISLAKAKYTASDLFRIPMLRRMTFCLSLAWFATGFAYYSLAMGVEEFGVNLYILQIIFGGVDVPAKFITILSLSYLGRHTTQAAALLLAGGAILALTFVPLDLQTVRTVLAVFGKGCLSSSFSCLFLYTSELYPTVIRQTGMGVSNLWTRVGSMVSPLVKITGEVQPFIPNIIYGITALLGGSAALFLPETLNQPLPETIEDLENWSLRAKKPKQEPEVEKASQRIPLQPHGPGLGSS

[2] = molecular target: T3, ATP-binding cassette subfamily G member 2 (ABCG2) (Homo sapiens, UniProt Q9UNQ0); conditions: in vitro
T3 sequence (Q9UNQ0 1-655): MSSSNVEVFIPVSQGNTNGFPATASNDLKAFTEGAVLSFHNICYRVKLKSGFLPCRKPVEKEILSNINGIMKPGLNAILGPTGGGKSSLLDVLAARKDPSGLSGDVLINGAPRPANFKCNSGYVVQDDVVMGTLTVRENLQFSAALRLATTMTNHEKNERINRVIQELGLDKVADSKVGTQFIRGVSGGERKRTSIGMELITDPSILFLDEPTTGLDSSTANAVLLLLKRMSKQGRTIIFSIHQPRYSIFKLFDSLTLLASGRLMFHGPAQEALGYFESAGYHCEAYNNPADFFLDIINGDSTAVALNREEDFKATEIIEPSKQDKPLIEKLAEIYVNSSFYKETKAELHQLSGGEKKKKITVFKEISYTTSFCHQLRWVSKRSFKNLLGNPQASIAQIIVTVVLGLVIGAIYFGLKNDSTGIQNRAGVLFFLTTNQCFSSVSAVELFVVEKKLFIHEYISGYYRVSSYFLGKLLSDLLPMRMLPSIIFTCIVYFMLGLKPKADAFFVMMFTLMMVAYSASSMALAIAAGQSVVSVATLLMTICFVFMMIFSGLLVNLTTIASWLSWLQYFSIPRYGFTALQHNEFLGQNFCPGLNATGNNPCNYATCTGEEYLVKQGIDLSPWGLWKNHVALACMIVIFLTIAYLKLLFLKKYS

| SMILES | effect on aggravation of CKD by hyperuricemia (5/6 Nx rats) | Cmax [1] [ng/mL] | oral bioavailability [1] [%] | plasma clearance ([1]; Sprague-Dawley rats) [mL/min/kg] | terminal elimination half-life (T1/2) ([1]; Sprague-Dawley rats) [h] | IC50 (OAT1) [µM] | IC50 (OAT3) [µM] | IC50 [2] [µM] | nephroprotection (5/6 Nx rats; 5/6 rats that not received oxonic acid) |
| --- | --- | --- | --- | --- | --- | --- | --- | --- | --- |
| Oc1ncnc2[nH]ncc12 [Allopurinol, allopurinol] | prevented the aggravation of the disease | – | – | – | – | – | – | – | – |
| O=C(c1cc(Cl)c(O)c(Cl)c1)N1CS(=O)(=O)c2ccccc21 [Dotinurad, 3-(3,5-dichloro-4-hydroxybenzoyl)-1,1-dioxo-2,3-dihydro-1,3-benzothiazole] | – | 415 | 2.5 | 402.1 | 1.88 | 4.08 | 1.32 | 4.16 | – |
| Cc1nc(-c2ccc(OCC(C)C)c(C#N)c2)sc1C(=O)O [Febuxostat, febuxostat] | prevented the aggravation of the disease | – | – | – | – | – | – | – | significant nephroprotection |
